These are literature values, as cited in patent US20050238616A1, “Compositions for treatment of central nervous system neoplasms, and methods of making and using the same” (Guilford Pharmaceuticals, Inc., priority 2002, published 2005).

Each structure is given as a SMILES string.

The data set deals with human glioma cell lines. The following applies: several human glioma cell lines in vitro.

On to `CC(=O)O[C@H]1C(=O)[C@@]2(C)[C@H]([C@H](OC(=O)c3ccccc3)[C@]3(O)C[C@H](OC(=O)[C@H](O)[C@@H](NC(=O)c4ccccc4)c4ccccc4)C(C)=C1C3(C)C)[C@]1(OC(C)=O)CO[C@@H]1C[C@@H]2O` [paclitaxel], for which the LD90 was 5 to 10 nM.
